How the values were obtained:
hERG potassium channel = hERG potassium channel (Homo sapiens (Human), UniProt Q12809); assay: hERG binding assay (automated patch clamp, CHO cells); type: cell-based; conditions: CHO cell line, Nanion Syncropatch 384PE
Summary of the method: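 CHO cells on automated patch clamp; compounds tested in quadruplicate. Currents evoked every 15 s from −80 mV holding by a 500 ms step to 60 mV then 500 ms to −40 mV.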

[1] = Human Caco-2 bidirectional permeability A to B and B to A; type: in vitro ADME; conditions: for Papp at 2 h: Caco-2, 2 hours, pH 7.4; for efflux ratio at 2 h: Caco-2, pH 7.4
Procedure: An automated assay was used to determine the bidirectional permeability (efflux and uptake) of compounds in Caco-2 cells carried out over 2 hours at pH 7.4.
The efflux ratio (ER) can be determined using the following equation: ER=Papp(B-A)/Papp(A-B) Where Papp (B-A) indicates the apparent permeability coefficient in basolateral to apical direction, and Papp (A-B) indicates the apparent permeability coefficient in apical to basolateral direction. Human Caco-2 Passive Permeability A to B Papp

[2] = Human hepatocyte assay (metabolic stability); type: in vitro ADME; conditions: human hepatocytes
Procedure: The metabolic stability of compounds in human hepatocytes was assessed using the following protocol: • 1. Prepare 10 mM stock solutions of compound and control compounds in appropriate solvent (DMSO). Place incubation medium (L-15 Medium) in a 37° C. water bath, and allow warming for at least 15 minutes prior to use. • 2. Add 80 μL of acetonitrile to each well of the 96-well deep well plate (quenching plate). • 3. In a new 96-well plate, dilute the 10 mM test compounds and the control compounds to 100 μM by combining 198 μL of acetonitrile and 2 μL of 10 mM stock. • 4. Remove a vial of cryopreserved (less than −150° C.) human hepatocytes (LiverPool™ 10 Donor Human hepatocytes obtained from Celsis IVT. Chicago, Ill. (Product No. S01205)) from storage, ensuring that vials remain at cryogenic temperatures until thawing process ensues. As quickly as possible, thaw the cells by placing the vial in a 37° C. water bath and gently shaking the vials. Vials should remain in water bath until all ice crystals have dissolved and are no longer visible. After thawing is complete, spray vial with 70% ethanol, transfer the vial to a bio-safety cabinet. • 5. Open the vial and pour the contents into the 50 mL conical tube containing thawing medium. Place the 50 mL conical tube into a centrifuge and spin at 100 g for 10 minutes. […] Using Cellometer® Vision, count cells and determine the viable cell density. Cells with poor viability (<80% viability) are not acceptable for use. […] Transfer 247.5 μL of hepatocytes into each well of a 96-well cell culture plate. Place the plate on Eppendorf Thermomixer Comfort plate shaker to allow the hepatocytes to warm for 10 minutes. • 8. Add 2.5 μL of 100 μM test compound or control compounds into an incubation well containing cells, mix to achieve a homogenous suspension at 0.5 min, which when achieved, will define the 0.5 min time point. At the 0.5 min time, transfer 20 μL of incubated mixture to wells in a “Quenching plate” followed by vortexing. • 9. Incubate the plate at 37° C. at 900 rpm on an Eppendorf Thermomixer Comfort plate shaker. […] Centrifuge the quenching plates for 20 minutes at 4,000 rpm. 4 different compounds are pooled into one cassette and used for LC/MS/MS analysis.
All calculations were carried out using Microsoft Excel. Peak areas were determined from extracted ion chromatograms. In vitro intrinsic clearance (in vitro Clint, in […]) of parent compound was determined by regression analysis of the Ln percent parent disappearance vs. time curve.
V=incubation volume (0.25 mL);
N=number of hepatocytes per well (0.25×10^6 cells).

[3] = log D (shake flask, 1-octanol/aqueous buffer); type: physicochemical
Summary of the method: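 Distribution between 1-octanol and aqueous buffer at pH 7.4 was measured by shake flask, with compounds run in mixtures of ten. Relative concentrations in each phase were quantified by UPLC with quantitative MS. Caffeine served as a low-log D QC sample in all runs.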

[4] = Human Caco-2 passive permeability A to B Papp; type: in vitro ADME; conditions: apical pH 6.5, basolateral pH 7.4, efflux inhibitor cocktail
Procedure: An automated assay was used to determine the passive permeability of compounds in Caco-2 cell monolayers carried out over 2 hours with an apical pH of 6.5 and basolateral pH of 7.4. The Caco-2 AB inhibition assay is carried out with chemical inhibition of the three major efflux transporters ABCB1 (P-gp), ABCG2 (BCRP) and ABCC2 (MRP2) in Caco-2 cells. Incubation of both apical and basolateral is carried out with a cocktail of inhibitors (50 μM quinidine, 20 μM sulfasalazine and 100 μM benzbromarone). Samples were analyzed through LC/MS/MS to estimate the apparent permeability coefficients (Papp) of compounds across Caco-2 cell monolayers and results are quoted in units of ×10^−6 cm/s.

[5] = 1-octanol/aqueous buffer, pH 7.4, pH 7.4, 1-octanol/aqueous buffer
[6] = pH 7.4, 1-octanol/aqueous buffer

Sequence of hERG potassium channel (Q12809 whole entry): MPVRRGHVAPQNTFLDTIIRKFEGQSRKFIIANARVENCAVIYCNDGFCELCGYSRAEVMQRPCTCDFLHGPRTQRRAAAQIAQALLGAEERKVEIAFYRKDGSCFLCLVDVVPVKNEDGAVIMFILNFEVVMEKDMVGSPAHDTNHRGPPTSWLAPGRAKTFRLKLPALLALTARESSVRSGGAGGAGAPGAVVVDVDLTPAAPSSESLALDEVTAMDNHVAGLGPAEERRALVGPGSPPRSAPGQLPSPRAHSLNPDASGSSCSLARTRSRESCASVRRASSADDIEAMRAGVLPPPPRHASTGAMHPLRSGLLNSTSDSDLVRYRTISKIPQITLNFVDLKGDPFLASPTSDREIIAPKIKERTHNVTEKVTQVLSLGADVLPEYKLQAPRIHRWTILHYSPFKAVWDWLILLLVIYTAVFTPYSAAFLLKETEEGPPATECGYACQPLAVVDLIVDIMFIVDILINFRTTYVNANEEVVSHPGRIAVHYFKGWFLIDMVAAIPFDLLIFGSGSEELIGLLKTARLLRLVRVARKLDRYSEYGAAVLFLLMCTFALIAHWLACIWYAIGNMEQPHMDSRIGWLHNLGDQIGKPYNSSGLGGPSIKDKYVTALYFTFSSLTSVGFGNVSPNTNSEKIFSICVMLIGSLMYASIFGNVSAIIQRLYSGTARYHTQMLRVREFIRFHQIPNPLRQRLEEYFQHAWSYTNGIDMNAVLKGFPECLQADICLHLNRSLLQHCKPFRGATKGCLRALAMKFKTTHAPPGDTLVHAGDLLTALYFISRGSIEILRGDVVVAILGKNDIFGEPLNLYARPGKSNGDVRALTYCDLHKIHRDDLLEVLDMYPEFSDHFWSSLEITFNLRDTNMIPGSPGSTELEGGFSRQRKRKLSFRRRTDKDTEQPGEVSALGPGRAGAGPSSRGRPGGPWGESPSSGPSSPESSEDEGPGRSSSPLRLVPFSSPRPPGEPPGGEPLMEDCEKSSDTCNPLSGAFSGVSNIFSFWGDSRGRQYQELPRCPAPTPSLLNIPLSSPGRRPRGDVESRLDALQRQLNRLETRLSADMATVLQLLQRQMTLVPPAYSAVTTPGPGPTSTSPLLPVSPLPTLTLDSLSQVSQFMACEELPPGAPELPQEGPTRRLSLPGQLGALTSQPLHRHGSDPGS

Row | SMILES | IC50 (hERG potassium channel) [µM] | Papp at 2 h [1] [nm/s] | efflux ratio at 2 h [1] | hepatocyte CLint at 1 µM [2] [µL/min/1e6 cells] | logD [3, 5] | logD [3, 6] | Papp at 2 h [4] [nm/s]
1 | COCC(F)(F)CN1[C@H](c2ccc(NC3CN(CCCF)C3)cc2OC)c2ccc3[nH]ncc3c2C[C@H]1C [Example 1, N-(4-((6S,8R)-7-(2,2-difluoro-3-methoxypropyl)-8-methyl-6,7,8,9-tetrahydro-3H-pyrazolo[4,3-f]isoquinolin-6-yl)-3-methoxyphenyl)-1-(3-fluoropropyl)azetidin-3-amine] | 10 | 9 | 9.4 | 11 | 3.4 | – | –
2 | COCC(F)(F)CN1[C@H](c2ccc(NC3CN(CCCF)C3)cn2)c2ccc3[nH]ncc3c2C[C@H]1C [Example 2, 6-((6S,8R)-7-(2,2-difluoro-3-methoxypropyl)-8-methyl-6,7,8,9-tetrahydro-3H-pyrazolo[4,3-f]isoquinolin-6-yl)-N-(1-(3-fluoropropyl)azetidin-3-yl)pyridin-3-amine] | > 40 | 39 | 8.4 | 6 | 2.6 | – | –
3 | C[C@@H]1Cc2c(ccc3[nH]ncc23)[C@@H](c2ccc(NC3CN(CCCF)C3)cn2)N1CC1(F)CC1 [Example 3, 6-((6S,8R)-7-((1-fluorocyclopropyl)methyl)-8-methyl-6,7,8,9-tetrahydro-3H-pyrazolo[4,3-f]isoquinolin-6-yl)-N-(1-(3-fluoropropyl)azetidin-3-yl)pyridin-3-amine] | > 36 | 23 | 9.2 | 5 | – | 2.5 | –
4 | COc1cc(NC2CN(CCCF)C2)ccc1[C@@H]1c2ccc3[nH]ncc3c2C[C@@H](C)N1CC1(F)CC1 [Example 6, N-(4-((6S,8R)-7-((1-fluorocyclopropyl)methyl)-8-methyl-6,7,8,9-tetrahydro-3H-pyrazolo[4,3-f]isoquinolin-6-yl)-3-methoxyphenyl)-1-(3-fluoropropyl)azetidin-3-amine] | 9.1 | 9 | 28 | 2 | – | 2.4 | 18
5 | C[C@@H]1Cc2c(ccc3[nH]ncc23)[C@@H](c2ccc(NC3CN(CCCF)C3)cn2)N1CC(F)(F)CO [Example 16, 2,2-difluoro-3-((6S,8R)-6-(5-((1-(3-fluoropropyl)azetidin-3-yl)amino)pyridin-2-yl)-8-methyl-3,6,8,9-tetrahydro-7H-pyrazolo[4,3-f]isoquinolin-7-yl)propan-1-ol] | > 40 | 16 | 9.7 | – | – | 2 | 17
6 | C[C@@H]1Cc2c(ccc3[nH]ncc23)[C@@H](c2ccc(NC3CN(CCCF)C3)cn2)N1CC(F)(F)F [Example 17, N-(1-(3-fluoropropyl)azetidin-3-yl)-6-((6S,8R)-8-methyl-7-(2,2,2-trifluoroethyl)-6,7,8,9-tetrahydro-3H-pyrazolo[4,3-f]isoquinolin-6-yl)pyridin-3-amine] | – | 47 | – | 6 | 2.9 | – | 133
7 | C[C@@H]1Cc2c(ccc3[nH]ncc23)[C@@H](c2ncc(NC3CN(CCCF)C3)cc2F)N1CC1(F)CC1 [Example 18, 5-fluoro-6-((6S,8R)-7-((1-fluorocyclopropyl)methyl)-8-methyl-6,7,8,9-tetrahydro-3H-pyrazolo[4,3-f]isoquinolin-6-yl)-N-(1-(3-fluoropropyl)azetidin-3-yl)pyridin-3-amine] | > 38 | – | – | 3 | 2.6 | – | –
8 | COc1cc(NC2CN(CCCF)C2)ccc1[C@@H]1c2ccc3[nH]ncc3c2C[C@@H](C)N1CC(C)(F)F [Example 19, N-(4-((6S,8R)-7-(2,2-difluoropropyl)-8-methyl-6,7,8,9-tetrahydro-3H-pyrazolo[4,3-f]isoquinolin-6-yl)-3-methoxyphenyl)-1-(3-fluoropropyl)azetidin-3-amine] | 5.4 | 42 | 2.6 | 5 | – | 3.7 | –
9 | COc1cc(NC2CN(CCCF)C2)ccc1[C@@H]1c2ccc3[nH]ncc3c2C[C@@H](C)N1CC(F)F [Example 21, N-(4-((6S,8R)-7-(2,2-difluoroethyl)-8-methyl-6,7,8,9-tetrahydro-3H-pyrazolo[4,3-f]isoquinolin-6-yl)-3-methoxyphenyl)-1-(3-fluoropropyl)azetidin-3-amine] | 5.3 | 40 | 1.6 | 6 | 3.1 | – | 141
10 | C[C@@H]1Cc2c(ccc3[nH]ncc23)[C@@H](c2ccc(NC3CN(CCCF)C3)cc2)N1CC(F)(F)F [Example 27, 1-(3-Fluoropropyl)-N-(4-((6R,8R)-8-methyl-7-(2,2,2-trifluoroethyl)-6,7,8,9-tetrahydro-3H-pyrazolo[4,3-f]isoquinolin-6-yl)phenyl)azetidin-3-amine] | 7.9 | 54 | 0.9 | – | 3.8 | – | –
11 | C[C@@H]1Cc2c(ccc3[nH]ncc23)[C@@H](c2ncc(NC3CN(CCCF)C3)cc2F)N1CC(F)(F)F [Example 30, 5-fluoro-N-(1-(3-fluoropropyl)azetidin-3-yl)-6-((6S,8R)-8-methyl-7-(2,2,2-trifluoroethyl)-6,7,8,9-tetrahydro-3H-pyrazolo[4,3-f]isoquinolin-6-yl)pyridin-3-amine] | > 33 | 27 | 7.8 | – | – | 3 | –
12 | C[C@@H]1Cc2c(ccc3[nH]nc(F)c23)[C@@H](c2ncc(NC3CN(CCCF)C3)cc2F)N1CC(F)(F)F [Example 33, 5-Fluoro-6-((6S,8R)-1-fluoro-8-methyl-7-(2,2,2-trifluoroethyl)-6,7,8,9-tetrahydro-3H-pyrazolo[4,3-f]isoquinolin-6-yl)-N-(1-(3-fluoropropyl)azetidin-3-yl)pyridin-3-amine] | 14 | 26 | 1.5 | – | – | 3.6 | –
13 | C[C@@H]1Cc2c(ccc3[nH]ncc23)[C@@H](c2ccc(NC3CN(CCCF)C3)cc2)N1CC(F)F [Example 48, N-(4-((6R,8R)-7-(2,2-difluoroethyl)-8-methyl-6,7,8,9-tetrahydro-3H-pyrazolo[4,3-f]isoquinolin-6-yl)phenyl)-1-(3-fluoropropyl)azetidin-3-amine] | – | – | – | 4 | 3.1 | – | –
14 | COc1cc(NC2CN(CCCF)C2)ccc1[C@@H]1c2ccc3[nH]ncc3c2C[C@@H](C)N1CC(C)(C)F [Example 64, N-(4-((6S,8R)-7-(2-fluoro-2-methylpropyl)-8-methyl-6,7,8,9-tetrahydro-3H-pyrazolo[4,3-f]isoquinolin-6-yl)-3-methoxyphenyl)-1-(3-fluoropropyl)azetidin-3-amine] | 13 | 20 | 5.6 | – | – | 3.2 | –

From patent publication US10131663B2, “Chemical compounds” (AstraZeneca AB, priority 2016, dated 2018)
